Some test systems named below: UO-31; KM12; IGROV-1; A498; BT-549; RXF 393; LOX IMVI; U-251; HCC 2998; 786-0; Malme-3M; Hs-578T; CAKI-1; SNB-19; SF-539; HL-60; NCI/ADR-RES; NCI-H522; ACHN; MDA-MB-435.
What all share (experiment): NCI tumour cell line growth inhibition, 48 h

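The compound was tested at five concentrations on cells cultured in 96-well plates, with a 48-hour exposure period. At the GI50, growth is halved.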 Calls of active or inactive are those of the source. Rule as the data show it: active = GI50 up to about 1.1 µM and inactive = higher.

For `COc1cccc2c1C(=O)c1c(O)c3c(c(O)c1C2=O)C[C@@](O)(C(C)=O)C[C@@H]3OC1CC(N(C)C)C(O)C(C)O1` (stereo not given in full), the GI50 is 0.00371 µM (active) in the assay with UO-31; 0.00485 µM (active) with KM12; 0.00447 µM (active) in the assay with IGROV-1; 0.00464 µM (active) with A498; 0.00114 µM (active) with BT-549; 0.00681 µM (active) with RXF 393. In addition, the GI50 was 0.00223 µM (active) with LOX IMVI; 0.00425 µM (active) with U-251; 0.0333 µM (active) in the assay with HCC 2998; 0.0562 µM (active) in the assay with 786-0; 0.0405 µM (active) in the assay with Malme-3M; 0.000123 µM (active) in the assay on Hs-578T. In addition, the GI50 was 0.00904 µM (active) in the assay with CAKI-1; 0.00411 µM (active) with SNB-19; 0.00417 µM (active) in the assay with SF-539; 0.00387 µM (active) in the assay on HL-60; 0.0575 µM (active) with NCI/ADR-RES; 0.0046 µM (active) with NCI-H522. Moreover, the GI50 in the assay on ACHN was 0.00337 µM (active); in the assay with MDA-MB-435, 0.000489 µM (active).

In the case of `C/C(=N\Nc1nc2ccccc2[nH]1)c1cnccn1`, the GI50 is 0.548 µM (active) in the assay on UO-31; 1.12 µM (active) with KM12; 0.139 µM (active) in the assay with IGROV-1; 1.98 µM (inactive) with A498; 6.04 µM (inactive) with BT-549; 0.392 µM (active) in the assay with RXF 393. Further, the GI50 is 0.361 µM (active) in the assay on LOX IMVI; 0.628 µM (active) in the assay on U-251; 19.6 µM (inactive) in the assay on HCC 2998; 0.263 µM (active) in the assay on 786-0; 0.791 µM (active) in the assay on Malme-3M; 19.8 µM (inactive) in the assay with Hs-578T. Moreover, the GI50 in the assay on CAKI-1 was 0.447 µM (active); in the assay with SNB-19, 2.72 µM (inactive); with SF-539, 0.713 µM (active); with HL-60, 0.0589 µM (active); in the assay with NCI/ADR-RES, 0.64 µM (active); with NCI-H522, 0.169 µM (active). The GI50 with ACHN is 0.231 µM (active); in the assay with MDA-MB-435, 0.822 µM (active).

As to `CC1=C(C)SC(=C2Sc3c(n(C)c(=O)[nH]c3=O)S2)S1`, the GI50 with UO-31, in the assay on KM12, in the assay on IGROV-1, with A498, in the assay on BT-549 and in the assay with RXF 393 was > 100 µM (inactive) in each case. The GI50 in the assay with LOX IMVI, in the assay with U-251, with HCC 2998, in the assay with 786-0, with Malme-3M and with Hs-578T was > 100 µM (inactive) in each case. Also, the GI50 in the assay with CAKI-1, in the assay with SNB-19, in the assay with SF-539, in the assay with HL-60, with NCI/ADR-RES and in the assay on NCI-H522 was > 100 µM (inactive) throughout. The GI50 in the assay on ACHN and with MDA-MB-435 was > 100 µM (inactive) throughout.

As for `O=Nc1c(-c2c(O)[nH]c3ccccc23)[nH]c2ccccc12` [INDIRUBIN-3-MONOXIME], the GI50 was 2.38 µM (inactive) in the assay with UO-31; 0.0865 µM (active) with KM12; 2.67 µM (inactive) in the assay with IGROV-1; 2.29 µM (inactive) with A498; 8.11 µM (inactive) in the assay with BT-549; 1.93 µM (inactive) in the assay on RXF 393. Besides, the GI50 in the assay on LOX IMVI was 3.86 µM (inactive); in the assay with U-251 it was 6.97 µM (inactive); with HCC 2998, 4.27 µM (inactive); in the assay on 786-0 it was 7.57 µM (inactive); with Malme-3M, 3.89 µM (inactive); in the assay on Hs-578T, 4.47 µM (inactive). The GI50 with CAKI-1 was 0.64 µM (active); with SNB-19, 25.8 µM (inactive); with SF-539, 20 µM (inactive); with HL-60 it was 2.72 µM (inactive); in the assay on NCI/ADR-RES, 5.77 µM (inactive); with NCI-H522 it was 3.48 µM (inactive). In addition, the GI50 is 1.94 µM (inactive) in the assay with ACHN and 3.79 µM (inactive) with MDA-MB-435.

In the case of `CC1(O)C(=O)OC2CC([C@]3(O)CCC4[C@@H]5C[C@H]6O[C@]67[C@@H](O)C=CC(=O)[C@]7(C)C5CC[C@@]43C)C1(C)C2` (stereo not given in full), the GI50 was 22.9 µM (inactive) in the assay on UO-31; 27 µM (inactive) in the assay on KM12; 23.1 µM (inactive) in the assay with IGROV-1; 31.3 µM (inactive) in the assay on A498; 6.68 µM (inactive) with BT-549; 3.63 µM (inactive) with RXF 393. Moreover, the GI50 in the assay with LOX IMVI is 4.54 µM (inactive); in the assay on U-251 it was 23.5 µM (inactive); in the assay on HCC 2998 it was 42 µM (inactive); with 786-0 it was 12.9 µM (inactive); with Malme-3M, 3.76 µM (inactive); in the assay on Hs-578T, 26.3 µM (inactive). In addition, the GI50 is 11.8 µM (inactive) in the assay with CAKI-1; 47.2 µM (inactive) in the assay with SNB-19; 18.2 µM (inactive) in the assay with SF-539; 3.52 µM (inactive) in the assay on HL-60; > 50.9 µM (inactive) in the assay on NCI/ADR-RES; 1.82 µM (inactive) with NCI-H522. Moreover, the GI50 in the assay with ACHN was 18.8 µM (inactive); in the assay on MDA-MB-435, 15.7 µM (inactive).

Consider `C[N+](C)(C)CC1Cc2ccccc2C1=O` (stereo not given), for which the GI50 was > 10 µM (inactive) with UO-31; > 10 µM (inactive) in the assay on KM12; > 10 µM (inactive) with IGROV-1; > 10 µM (inactive) in the assay on A498; > 10 µM (inactive) in the assay on BT-549; > 9.31 µM (inactive) in the assay on RXF 393. The GI50 is 4.41 µM (inactive) in the assay on LOX IMVI; > 10 µM (inactive) with U-251; > 10 µM (inactive) with HCC 2998; 3.32 µM (inactive) in the assay with 786-0; 2.11 µM (inactive) with Malme-3M; > 10 µM (inactive) with Hs-578T. The GI50 in the assay with CAKI-1 was > 4.8 µM (inactive); in the assay on SNB-19 it was > 10 µM (inactive); in the assay on SF-539 it was > 10 µM (inactive); in the assay with HL-60 it was 1.56 µM (inactive); in the assay on NCI/ADR-RES, > 4.78 µM (inactive); in the assay on NCI-H522, 2.36 µM (inactive). The GI50 is > 10 µM (inactive) in the assay with ACHN and > 6.87 µM (inactive) in the assay on MDA-MB-435.

As for `CC(C)(C)N1CC1CNC(=O)C(=O)NCC1CN1C(C)(C)C` (stereo not given), the GI50 in the assay on UO-31 is 6.61 µM (inactive); with KM12, 4.74 µM (inactive); with IGROV-1, 5.83 µM (inactive); in the assay on A498, 2.68 µM (inactive); with BT-549, 29.9 µM (inactive); in the assay with RXF 393 it was 1.67 µM (inactive). In addition, the GI50 in the assay with LOX IMVI was 8.24 µM (inactive); in the assay on U-251, 3.05 µM (inactive); in the assay on HCC 2998 it was 3.16 µM (inactive); in the assay with 786-0, 1.4 µM (inactive); in the assay with Malme-3M, 3.4 µM (inactive); with Hs-578T, 91 µM (inactive). Besides, the GI50 in the assay with CAKI-1 was 6.31 µM (inactive); in the assay on SNB-19, 13.7 µM (inactive); with SF-539 it was 2.94 µM (inactive); in the assay on HL-60, 0.411 µM (active); with NCI/ADR-RES, 2.55 µM (inactive); in the assay with NCI-H522, 1.31 µM (inactive). Also, the GI50 with ACHN was 1.29 µM (inactive); with MDA-MB-435, 38.8 µM (inactive).

For `OCCNC1c2cc(Cl)ccc2-c2c(Cl)cc(Cl)cc21` (stereo not given), the GI50 is 3.37 µM (inactive) in the assay with UO-31; 32.7 µM (inactive) in the assay on KM12; 13.2 µM (inactive) in the assay with IGROV-1; 48 µM (inactive) in the assay with A498; > 100 µM (inactive) in the assay on BT-549; 40.2 µM (inactive) with RXF 393. Moreover, the GI50 in the assay with LOX IMVI was 34.5 µM (inactive); with U-251 it was 26.3 µM (inactive); with HCC 2998, 35.1 µM (inactive); in the assay with 786-0 it was 27.3 µM (inactive); in the assay on Malme-3M it was > 100 µM (inactive); in the assay on Hs-578T it was 33.1 µM (inactive). Moreover, the GI50 with CAKI-1 is 30.3 µM (inactive); in the assay on SNB-19, 39.4 µM (inactive); in the assay on SF-539 it was 47.9 µM (inactive); in the assay with HL-60, 25.6 µM (inactive); in the assay on NCI/ADR-RES, 45.9 µM (inactive); with NCI-H522, 27.8 µM (inactive). The GI50 with ACHN is 25.9 µM (inactive); in the assay on MDA-MB-435, 35.6 µM (inactive).

As to `Cc1cc(O)c2cc3c(O)c(O)ccc3cc2c1`, the GI50 is 0.7 µM (active) with UO-31; 0.561 µM (active) with KM12; 1.51 µM (inactive) in the assay on IGROV-1; 3.12 µM (inactive) with A498; 0.726 µM (active) in the assay on BT-549; 0.713 µM (active) in the assay on RXF 393. Also, the GI50 was 1.35 µM (inactive) in the assay on LOX IMVI; 0.42 µM (active) in the assay with U-251; 0.817 µM (active) in the assay on HCC 2998; 3.95 µM (inactive) in the assay on 786-0; 1.4 µM (inactive) in the assay on Malme-3M; 0.465 µM (active) in the assay on Hs-578T. The GI50 was 2.08 µM (inactive) in the assay on CAKI-1; 0.615 µM (active) in the assay on SNB-19; 0.822 µM (active) in the assay with SF-539; 1.73 µM (inactive) with HL-60; 0.438 µM (active) in the assay on NCI/ADR-RES; 0.789 µM (active) in the assay with NCI-H522. Besides, the GI50 with ACHN is 1.77 µM (inactive); in the assay on MDA-MB-435, 3.63 µM (inactive).

With `Oc1cc(-c2ccccc2)cn2c1nc1ccccc12`, the GI50 in the assay on UO-31 is 2.64 µM (inactive); in the assay on KM12, 1.5 µM (inactive); in the assay with IGROV-1, 1.43 µM (inactive); with A498 it was 11 µM (inactive); with BT-549, 4.55 µM (inactive); with RXF 393, > 22 µM (inactive). In addition, the GI50 was 1.12 µM (active) in the assay on LOX IMVI; 2.51 µM (inactive) with U-251; 4.68 µM (inactive) in the assay on HCC 2998; 3.21 µM (inactive) with 786-0; 1.41 µM (inactive) in the assay on Malme-3M; 2.19 µM (inactive) in the assay on Hs-578T. Besides, the GI50 was 2.91 µM (inactive) in the assay with CAKI-1; 3.45 µM (inactive) in the assay with SNB-19; 2.59 µM (inactive) in the assay on SF-539; 0.482 µM (active) in the assay on HL-60; 1.21 µM (inactive) in the assay on NCI/ADR-RES; 0.243 µM (active) in the assay on NCI-H522. Besides, the values for the GI50 with ACHN and in the assay on MDA-MB-435 were 6.41 µM (inactive) and 0.189 µM (active), respectively.

For the origin of these results see ChEMBL document CHEMBL1201862, “PubChem BioAssay data set” (2004).
